# Reference: PMC3981466 (Bioorganic & medicinal chemistry letters, 2013)
# Like-named read-outs stand apart in the source and are kept apart here.
# Experiments:
# E. coli SPase = E. coli SPase (Escherichia coli, UniProt P00803); experiment: Biochemical activity
# S. aureus SPase = S. aureus SPase (Staphylococcus aureus, UniProt P0A070); experiment: Biochemical activity
# [1] = system: S. aureus (MSSA) strain 8325; settings: wild type MSSA strain 8325; included for reference; cited from earlier work
# [2] = system: methicillin resistant S. aureus (MRSA) strain USA300; settings: included for reference, cited from earlier work
# E. coli (MG1655) = settings: wild type MG1655; included for reference; cited from earlier work
# E. coli SPase, sequence (P00803 whole entry): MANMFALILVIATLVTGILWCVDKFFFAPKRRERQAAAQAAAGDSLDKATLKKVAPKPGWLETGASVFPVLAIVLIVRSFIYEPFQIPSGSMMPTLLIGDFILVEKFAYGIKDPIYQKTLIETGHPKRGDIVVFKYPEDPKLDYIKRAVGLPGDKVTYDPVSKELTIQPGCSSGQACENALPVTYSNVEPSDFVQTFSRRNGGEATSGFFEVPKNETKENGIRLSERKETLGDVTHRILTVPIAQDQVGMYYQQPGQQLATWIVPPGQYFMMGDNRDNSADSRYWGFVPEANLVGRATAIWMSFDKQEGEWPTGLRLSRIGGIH
# S. aureus SPase, sequence (P0A070 whole entry): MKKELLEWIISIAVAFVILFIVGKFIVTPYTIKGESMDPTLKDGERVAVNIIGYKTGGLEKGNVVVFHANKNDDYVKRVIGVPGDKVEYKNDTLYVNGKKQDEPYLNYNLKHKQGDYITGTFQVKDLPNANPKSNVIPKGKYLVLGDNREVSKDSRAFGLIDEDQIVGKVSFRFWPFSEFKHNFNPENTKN
structure (smiles),measurement,setting,value
CCCCCCCCCCCCCCCC(=O)N(C)[C@H](CO)C(=O)N[C@H](C)C(=O)NCC(=O)N(C)[C@@H]1C(=O)N[C@@H](C)C(=O)N[C@H](C(=O)O)Cc2ccc(O)c(c2)-c2cc1ccc2OP(=O)(O)O [Compound 7],IC50 difference relative to arylomycin A-C16,E. coli SPase,≤ 2 fold
same,IC50 difference relative to arylomycin A-C16,S. aureus SPase,≤ 2 fold
CCCCCCCCCCCCCCCC(=O)N(C)[C@H](CO)C(=O)N[C@H](C)C(=O)NCC(=O)N(C)[C@@H]1C(=O)N[C@@H](C)C(=O)N[C@H](C(=O)NCP(=O)(O)O)Cc2ccc(O)c(c2)-c2cc1ccc2O [Compound 1],loss of activity relative to parent arylomycin A-C16,E. coli SPase,~ 10 fold
same,loss of activity relative to parent arylomycin A-C16,S. aureus SPase,~ 10 fold
CCCCCCCCCCCCCCCC(=O)N(C)[C@H](CO)C(=O)N[C@H](C)C(=O)NCC(=O)N(C)[C@@H]1C(=O)N[C@@H](C)C(=O)N[C@H](C(=O)O)Cc2ccc(O)c(c2)-c2cc1ccc2OCCO [Compound 11],IC50 difference relative to arylomycin A-C16,E. coli SPase,≤ 2 fold
same,IC50 difference relative to arylomycin A-C16,S. aureus SPase,≤ 2 fold
CCCCCCCCCCCCCCCC(=O)N(C)[C@H](CO)C(=O)N[C@H](C)C(=O)NCC(=O)N(C)[C@@H]1C(=O)N[C@@H](C)C(=O)N[C@H](C(=O)O)Cc2ccc(O)c(c2)-c2cc1ccc2OCCN [Compound 9],IC50 difference relative to arylomycin A-C16,E. coli SPase,≤ 2 fold
same,IC50 difference relative to arylomycin A-C16,S. aureus SPase,≤ 2 fold
CCCCCCCCCCCCCCCC(=O)N(C)[C@H](CO)C(=O)N[C@H](C)C(=O)NCC(=O)N(C)[C@@H]1C(=O)N[C@@H](C)C(=O)N[C@H](C(=O)O)Cc2ccc(O)c(c2)-c2cc1ccc2O [arylomycin A-C16],MIC S. aureus,[1],>64 µg/mL
same,MIC MRSA,[2]; listed as A-C16,>64 µg/mL
same,MIC MRSA,[2],no detectable activity
same,MIC E. coli,E. coli (MG1655),>64 µg/mL
CCCCCCCCCCCCCCCC(=O)N(C)[C@H](CO)C(=O)N[C@H](C)C(=O)NCC(=O)N(C)[C@@H]1C(=O)N[C@@H](C)C(=O)N[C@H](C(=O)NCC=O)Cc2ccc(O)c(c2)-c2cc1ccc2OP(=O)(OCc1ccccc1)OCc1ccccc1 [Compound 8],lower affinity on the glycyl aldehyde backbone,E. coli SPase; Hpg modification on glycyl aldehyde scaffold (of 5),15 fold
CCCCCCCCCCCCCCCC(=O)N(C)[C@H](CO)C(=O)N[C@H](C)C(=O)NCC(=O)N(C)[C@@H]1C(=O)N[C@@H](C)C(=O)N[C@H](C(=O)NCP(=O)(Oc2ccccc2)Oc2ccccc2)Cc2ccc(O)c(c2)-c2cc1ccc2O [Compound 4],"change of affinity/activity relative to parent, in words",E. coli SPase,lost virtually all affinity
same,"change of affinity/activity relative to parent, in words",S. aureus SPase,lost virtually all affinity
CCCCCCCCCCCCCCCC(=O)N(C)[C@H](CO)C(=O)N[C@H](C)C(=O)NCC(=O)N(C)[C@@H]1C(=O)N[C@@H](C)C(=O)N[C@H](CC(=O)NCC=O)Cc2ccc(O)c(c2)-c2cc1ccc2O [Compound 6],"change of affinity/activity relative to parent, in words",E. coli SPase,lost virtually all activity
same,"change of affinity/activity relative to parent, in words",S. aureus SPase,lost virtually all activity
CCCCCCCCCCCCCCCC(=O)N(C)[C@H](CO)C(=O)N[C@H](C)C(=O)NCC(=O)N(C)[C@@H]1C(=O)N[C@@H](C)C(=O)N[C@H](C(=O)NCC=O)Cc2ccc(O)c(c2)-c2cc1ccc2O [Compound 5],more potent than arylomycin A-C16,E. coli SPase,5 fold
same,more potent than arylomycin A-C16,S. aureus SPase,40 fold
